Data: patent US20250304594A1, “METHYL (R)-2-(FLUOROMETHYL)-5-OXO-4-PHENYL-4,5,6,7-TETRAHYDRO-1H-CYCLOPENTA[B]PYRIDINE-3-CARBOXYLATE AND METHYL (R)-2-(FLUOROMETHYL)-5-OXO-4-PHENYL-1,4,5,7-TETRAHYDROFURO[3,4-B]PYRIDINE-3-CARBOXYLATE AS Cav1,2 ACTIVATORS” (Novartis AG, priority 2020, published 2025)

Molecular target: T1, human CaV1.2 (Homo sapiens, UniProt Q13936)
T1 construct: expressed in transfected cells; host or cells: Flp-In 293 T-Rex (HEK293), monoclonal CaV1.2-HEK293(AUX) clone 2-19B; doxycycline-induced auxiliary subunits
T1 sequence (Q13936 1-2138 isoform Q13936-23): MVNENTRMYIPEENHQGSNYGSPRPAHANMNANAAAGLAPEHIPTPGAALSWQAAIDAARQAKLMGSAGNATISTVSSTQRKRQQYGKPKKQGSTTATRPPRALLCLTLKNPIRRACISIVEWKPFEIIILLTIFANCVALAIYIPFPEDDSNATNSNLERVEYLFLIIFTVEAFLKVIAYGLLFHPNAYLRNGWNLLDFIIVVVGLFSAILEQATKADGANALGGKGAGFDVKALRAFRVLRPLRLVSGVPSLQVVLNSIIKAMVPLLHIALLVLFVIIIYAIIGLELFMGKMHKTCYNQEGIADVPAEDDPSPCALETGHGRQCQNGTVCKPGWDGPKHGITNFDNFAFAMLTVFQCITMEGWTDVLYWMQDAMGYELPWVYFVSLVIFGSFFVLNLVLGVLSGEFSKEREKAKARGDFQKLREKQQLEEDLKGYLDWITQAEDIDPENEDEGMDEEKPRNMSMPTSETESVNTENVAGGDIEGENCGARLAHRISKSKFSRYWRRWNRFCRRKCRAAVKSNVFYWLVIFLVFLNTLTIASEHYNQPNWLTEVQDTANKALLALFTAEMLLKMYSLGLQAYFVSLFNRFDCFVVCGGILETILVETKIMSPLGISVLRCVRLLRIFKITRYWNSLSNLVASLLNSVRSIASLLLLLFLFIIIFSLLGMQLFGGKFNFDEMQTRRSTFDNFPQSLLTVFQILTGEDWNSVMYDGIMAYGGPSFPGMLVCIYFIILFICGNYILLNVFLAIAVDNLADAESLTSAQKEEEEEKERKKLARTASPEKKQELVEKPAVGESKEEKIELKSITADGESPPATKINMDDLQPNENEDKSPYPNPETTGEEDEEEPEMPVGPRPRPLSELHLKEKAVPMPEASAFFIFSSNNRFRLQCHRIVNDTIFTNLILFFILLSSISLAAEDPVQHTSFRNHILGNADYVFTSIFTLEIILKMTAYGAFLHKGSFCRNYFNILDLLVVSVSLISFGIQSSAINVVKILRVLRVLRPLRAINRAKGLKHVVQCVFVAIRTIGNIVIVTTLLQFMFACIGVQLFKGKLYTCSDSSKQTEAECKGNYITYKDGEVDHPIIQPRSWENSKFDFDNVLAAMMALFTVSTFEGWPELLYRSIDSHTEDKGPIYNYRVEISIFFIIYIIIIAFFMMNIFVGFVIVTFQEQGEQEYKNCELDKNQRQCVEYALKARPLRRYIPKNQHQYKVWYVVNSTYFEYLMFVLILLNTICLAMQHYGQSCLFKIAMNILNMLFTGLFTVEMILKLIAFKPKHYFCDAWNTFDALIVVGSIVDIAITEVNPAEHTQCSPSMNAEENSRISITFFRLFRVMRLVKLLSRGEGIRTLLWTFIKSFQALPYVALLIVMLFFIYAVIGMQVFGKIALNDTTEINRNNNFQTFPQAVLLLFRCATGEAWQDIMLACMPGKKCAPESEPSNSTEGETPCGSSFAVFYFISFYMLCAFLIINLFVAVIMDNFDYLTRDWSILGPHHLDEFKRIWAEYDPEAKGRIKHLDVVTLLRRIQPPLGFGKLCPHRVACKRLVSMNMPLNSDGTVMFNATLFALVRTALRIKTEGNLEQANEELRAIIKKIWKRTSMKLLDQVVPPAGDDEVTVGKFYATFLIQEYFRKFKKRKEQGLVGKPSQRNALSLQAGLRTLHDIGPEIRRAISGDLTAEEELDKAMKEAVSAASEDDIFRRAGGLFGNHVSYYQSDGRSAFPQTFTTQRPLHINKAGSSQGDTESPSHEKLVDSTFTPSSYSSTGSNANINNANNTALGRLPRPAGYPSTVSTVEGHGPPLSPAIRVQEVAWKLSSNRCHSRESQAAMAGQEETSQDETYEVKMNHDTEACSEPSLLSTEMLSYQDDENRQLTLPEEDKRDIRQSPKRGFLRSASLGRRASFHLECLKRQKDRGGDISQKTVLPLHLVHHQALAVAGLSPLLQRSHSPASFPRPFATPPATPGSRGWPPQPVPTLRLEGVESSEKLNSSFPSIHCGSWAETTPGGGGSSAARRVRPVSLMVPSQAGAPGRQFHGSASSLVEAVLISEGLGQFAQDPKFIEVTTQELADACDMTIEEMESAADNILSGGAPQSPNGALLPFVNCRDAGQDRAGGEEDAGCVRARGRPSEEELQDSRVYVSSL
T1 sequence (Q9NY47 19-1001 partner limits assumed): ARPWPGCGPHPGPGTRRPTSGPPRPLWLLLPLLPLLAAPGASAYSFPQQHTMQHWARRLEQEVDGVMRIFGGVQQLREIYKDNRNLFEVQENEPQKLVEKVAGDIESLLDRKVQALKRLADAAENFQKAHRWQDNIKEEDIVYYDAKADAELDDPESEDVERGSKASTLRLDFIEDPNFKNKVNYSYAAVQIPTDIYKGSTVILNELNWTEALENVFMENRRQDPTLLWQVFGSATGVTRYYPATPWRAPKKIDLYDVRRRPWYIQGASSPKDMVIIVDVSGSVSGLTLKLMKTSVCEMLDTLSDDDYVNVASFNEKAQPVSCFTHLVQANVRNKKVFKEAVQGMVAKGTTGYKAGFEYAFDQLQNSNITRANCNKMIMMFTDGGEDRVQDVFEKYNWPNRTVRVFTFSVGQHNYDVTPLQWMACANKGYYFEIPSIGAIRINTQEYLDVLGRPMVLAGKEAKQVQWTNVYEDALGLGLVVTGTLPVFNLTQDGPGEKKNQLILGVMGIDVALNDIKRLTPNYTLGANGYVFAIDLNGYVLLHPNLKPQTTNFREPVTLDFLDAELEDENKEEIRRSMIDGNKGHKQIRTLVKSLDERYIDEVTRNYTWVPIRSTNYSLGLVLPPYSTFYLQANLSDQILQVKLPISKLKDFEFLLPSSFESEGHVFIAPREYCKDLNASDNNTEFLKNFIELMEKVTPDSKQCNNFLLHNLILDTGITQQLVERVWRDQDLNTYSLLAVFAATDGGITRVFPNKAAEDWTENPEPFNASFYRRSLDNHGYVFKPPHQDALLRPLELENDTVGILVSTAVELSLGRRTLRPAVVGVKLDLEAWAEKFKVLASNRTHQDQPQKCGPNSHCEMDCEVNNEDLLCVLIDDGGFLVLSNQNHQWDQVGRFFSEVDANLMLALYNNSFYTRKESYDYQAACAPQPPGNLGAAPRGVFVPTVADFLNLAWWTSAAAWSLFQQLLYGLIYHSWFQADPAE
T1 sequence (Q9NY47 1002-1150 partner limits assumed): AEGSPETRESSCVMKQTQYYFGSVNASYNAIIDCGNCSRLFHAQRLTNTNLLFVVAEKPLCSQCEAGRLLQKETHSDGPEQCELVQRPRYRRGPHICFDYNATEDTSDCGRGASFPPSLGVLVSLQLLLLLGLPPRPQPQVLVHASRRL
T1 sequence (Q08289 whole entry partner): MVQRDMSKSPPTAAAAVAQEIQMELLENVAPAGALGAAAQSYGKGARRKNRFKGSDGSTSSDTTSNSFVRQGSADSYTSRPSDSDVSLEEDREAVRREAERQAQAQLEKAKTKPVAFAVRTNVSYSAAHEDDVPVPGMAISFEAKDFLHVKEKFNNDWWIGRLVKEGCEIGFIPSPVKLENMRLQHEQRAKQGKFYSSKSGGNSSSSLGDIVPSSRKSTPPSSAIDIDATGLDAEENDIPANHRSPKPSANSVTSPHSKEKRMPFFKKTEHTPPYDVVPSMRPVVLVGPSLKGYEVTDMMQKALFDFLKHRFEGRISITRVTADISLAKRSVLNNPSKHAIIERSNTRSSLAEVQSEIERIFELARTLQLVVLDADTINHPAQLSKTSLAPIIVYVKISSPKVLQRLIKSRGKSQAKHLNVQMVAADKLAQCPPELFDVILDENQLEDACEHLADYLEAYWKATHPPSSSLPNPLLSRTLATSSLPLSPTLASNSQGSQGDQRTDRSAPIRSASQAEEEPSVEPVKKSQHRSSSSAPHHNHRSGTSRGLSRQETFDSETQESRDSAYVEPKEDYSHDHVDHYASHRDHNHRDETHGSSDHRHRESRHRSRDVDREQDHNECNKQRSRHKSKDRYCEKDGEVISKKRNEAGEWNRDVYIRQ
Experiment: QPatch channel biophysics assay (channel gating, V1/2 of activation, inactivation) in CaV1.2-HEK293(AUX) cells
Assay type: cell-based
Settings: Table 9; shift of half-way channel activation voltage V1/2
Source text: The monoclonal CaV1.2-HEK293(AUX) cell line constitutively expresses human CaV1.2 alpha1C (α1C) subunit (CACNA1C) and has doxycycline-inducible expression of the alpha2delta (α2Δ2) auxiliary subunit (CACNA2D2) and beta2 (02) auxiliary subunit (CACNB2). To generate the cell line, expression vectors pcDNA5.0/FRT-TO-CACNA2D2-FCS-P2A-CACNB2 and pCMV6-entry-CACNA1C were established via gene synthesis and cloning. Here, pcDNA5.0/FRT-TO plasmid is from Invitrogen, pCMV6-entry is from Origene, FCS stands for Furin Cleavage Site, P2A is a peptide self-cleavage sequence derived from porcine teschovirus-1, and FRT is the Flippase recognition target site. Next, parental line Flp-In™ 293 T-Rex (Invitrogen) was transfected with pcDNA5.0/FRT-TO-CACNA2D2-FCS-P2A-CACNB2 and Flippase vector pOG44 (Invitrogen) to establish targeted integration of the CACNA2D2-FCS-P2A-CACNB2 expression cassette into the pre-engineered FRT site in Flp-In™ 293 T-Rex. This intermediate cell line was then transfected with pCMV6-entry-CACNA1C to establish stable CACNA1C expression. Clonal isolation was achieved under Neomycin selection. A cell clone (2-19B) with good voltage-dependent Barium current (see electrophysiology methods below) was selected for characterization of CaV1.2 activators.
24 hours prior an electrophysiology experiment, doxycycline (1 μg/ml) was added to the growth medium (Table 6), and 25 μM of verapamil was co-applied to prevent calcium influx triggered cell death. Cell confluency should reach 70%-80% right before the experiment. To harvest cells (from a T175 cm^2 flask as an example), growth media were removed completely, and the cells were rinsed with 10 mL of D-PBS. D-PBS was aspirated, and 10 mL of Detachin (Genlantis) was added and the plate was placed in a 37° C. incubator for 10 minutes. Detached cells were placed into a 15 mL conical tube and spun at 1000 rpm for 2 minutes. Supernatant was removed, and cells were re-suspended in QPatch complete media (Table 7) to desired cell density of 1.5-3 million cells per QPatch run. Each experimental run uses 1.5 mL of cells.
The cells suspension was taken to the Sophion QPatch platform that uses whole-cell voltage clamp to measure barium currents conducted through CaV1.2 on single-hole QPlates. Extracellular and intracellular patch clamp solutions are described in Tables 7 and 8, respectively. A dose-response assay protocol was used to determine the maximal fold change of peak inward current (Emax) and potency (EC50) of each compound. The protocol had eight liquid periods. The first liquid period was to stabilize current amplitude, which was monitored using repetitive 200-ms voltage pulses stepping from −80 mV to 0 mV. The second liquid period was to determine baseline current amplitude in the presence of vehicle control, using a single 20-ms voltage pulse stepping from −80 mV to 0 mV. The third through eighth liquid periods were used to ascertain a 6-dose response to compound treatments, also using single 20-ms voltage pulses stepping from −80 mV to 0 mV. The EC50 was generated using the following equation Iconcentration=Ibase+(Ifull−Ibase)*c^n/(XC50^n+c^n), where c is the concentration and n is the Hill coefficient constant. Ifull is the maximal current achievable, and Ibase is 0. A channel biophysics assay protocol was used to determine channel gating properties including current-voltage relationship (IV curves), half-way channel activation voltage (V1/2), rate of channel inactivation (tau), and amplitude of tail current. Among these, V1/2 was derived from fitting equation G(V)=Gvmin+(Gvmax−Gvmin)/(1+exp(−(V−V½)/Vslope)), where G stands for conductance, Gvmin equals 0, Gvmax is the maximal conductance, and Vslope is a slope factor. G(V) was pre-calculated from equation G(V)=I(V)/(V−0.06), for each experimentally applied depolarization potential (V) and the corresponding current amplitude (I(V)), and 0.06 in the equation was the experimentally determined reversal potential in volts. […]

Going from COC(=O)C1=C(CF)NC2=C(C(=O)OC2)[C@H]1c1cccc(F)c1[C@@H](C)F (single isomer, unassigned) [Example 8] to COC(=O)C1=C(CF)NC2=C(C(=O)OC2)[C@H]1c1cccc(F)c1C(F)F (single isomer, unassigned) [Example 15], the “Biophysics voltage shift (mV)” value falls from −5.4 mV to −5.7 mV.

Compared with COC(=O)C1=C(CF)NC2=C(C(=O)OC2)[C@H]1c1ccccc1OC(F)F (single isomer, unassigned) [Example 9], COC(=O)C1=C(CF)NC2=C(C(=O)OC2)[C@H]1c1cccc(F)c1CC(F)F (single isomer, unassigned) [Example 11] is lower in “Biophysics voltage shift (mV)” value: −4.5 mV for the first, −5.0 mV for the second.

Compared with COC(=O)C1=C(CF)NC2=C(C(=O)OC2)[C@H]1c1cccc(F)c1C(F)(F)F (single isomer, unassigned) [Example 17], COC(=O)C1=C(CF)NC2=C(C(=O)OC2)[C@H]1c1cccc(F)c1[C@H](F)CF (single isomer, unassigned) [Example 6] is higher in “Biophysics voltage shift (mV)” value: −6.8 mV for the first, −6.3 mV for the second.

First: COC(=O)C1=C(CF)NC2=C(C(=O)CC2)[C@H]1c1cccc(F)c1[C@@H](F)CF (single isomer, unassigned) [Example 7, methyl (R)-4-(2-((R or S)-1,2-difluoroethyl)-3-fluorophenyl)-2-(fluoromethyl)-5-oxo-4,5,6,7-tetrahydro-1H-cyclopenta[b]pyridine-3-carboxylate]
Second: COC(=O)C1=C(CF)NC2=C(C(=O)CC2)[C@H]1c1cccc(F)c1C1CC1 (single isomer, unassigned) [Example 28]
The “Biophysics voltage shift (mV)” value of the first is higher: −6.3 mV for the first, −7.2 mV for the second.

Compared with COC(=O)C1=C(CF)NC2=C(C(=O)OC2)[C@H]1c1cc(F)cc(F)c1[C@H](F)CF (single isomer, unassigned) [Example 16, methyl (R)-4-(2-((R or S)-1,2-difluoroethyl)-3,5-difluorophenyl)-2-(fluoromethyl)-5-oxo-1,4,5,7-tetrahydrofuro[3,4-b]pyridine-3-carboxylate], COC(=O)C1=C(CF)NC2=C(C(=O)OC2)[C@H]1c1cc(F)cc(F)c1C(F)F (single isomer, unassigned) [Example 18] is higher in “Biophysics voltage shift (mV)” value: −5.8 mV for the first, −5.2 mV for the second.

Compared with COC(=O)C1=C(CF)NC2=C(C(=O)OC2)[C@H]1c1cccc(F)c1C1CC1 (single isomer, unassigned) [Example 2], COC(=O)C1=C(CF)NC2=C(C(=O)OC2)[C@H]1c1cccc(F)c1[C@H]1CC1(F)F (single isomer, unassigned) [Example 1, methyl (R)-4-(2-((R or S)-2,2-difluorocyclopropyl)-3-fluorophenyl)-2-(fluoromethyl)-5-oxo-1,4,5,7-tetrahydrofuro[3,4-b]pyridine-3-carboxylate] is lower in “Biophysics voltage shift (mV)” value: −4.5 mV for the first, −5.9 mV for the second.

First: COC(=O)C1=C(CF)NC2=C(C(=O)OC2)[C@H]1c1cc(F)cc(F)c1C(F)(F)F (single isomer, unassigned) [Example 10]
Second: COC(=O)C1=C(CF)NC2=C(C(=O)OC2)[C@H]1c1cc(F)ccc1C(F)(F)F (single isomer, unassigned) [Example 23]
The “Biophysics voltage shift (mV)” value of the first is higher: −2.3 mV for the first, −6.2 mV for the second.

Going from COC(=O)C1=C(CF)NC2=C(C(=O)OC2)[C@H]1c1cc(F)cc(F)c1[C@H]1CC1(F)F (single isomer, unassigned) [Example 4, Methyl (R)-4-(2-((R or S)-2,2-difluorocyclopropyl)-3,5-difluorophenyl)-2-(fluoromethyl)-5-oxo-1,4,5,7-tetrahydrofuro[3,4-b]pyridine-3-carboxylate] to COC(=O)C1=C(CF)NC2=C(C(=O)OC2)[C@H]1c1cc(F)cc(F)c1C1CC1 (single isomer, unassigned) [Example 13], the “Biophysics voltage shift (mV)” value rises from −4.4 mV to −0.7 mV.

Going from COC(=O)C1=C(CF)NC2=C(C(=O)OC2)[C@H]1c1cc(F)cc(F)c1[C@H](C)F (single isomer, unassigned) [Example 5, methyl (R)-4-(3,5-difluoro-2-((R or S)-1-fluoroethyl)phenyl)-2-(fluoromethyl)-5-oxo-1,4,5,7-tetrahydrofuro[3,4-b]pyridine-3-carboxylate] to COC(=O)C1=C(CF)NC2=C(C(=O)OC2)[C@H]1c1cc(F)cc(F)c1[C@H]1CC1(F)F (single isomer, unassigned) [Example 3, Methyl (R)-4-(2-((R or S)-2,2-difluorocyclopropyl)-3,5-difluorophenyl)-2-(fluoromethyl)-5-oxo-1,4,5,7-tetrahydrofuro[3,4-b]pyridine-3-carboxylate], the “Biophysics voltage shift (mV)” value rises from −4.6 mV to 0.1 mV.
